# Laboratory results published in ChEMBL document CHEMBL3414572, “Identification of fused 16β,17β-oxazinone-estradiol derivatives as a new family of non-estrogenic 17β-hydroxysteroid dehydrogenase type 1 inhibitors” (Eur J Med Chem, 2015).
# Calls of active or inactive are those of the source. No cut-off for these calls is given here.
# Legend:
# [1] = target: T1, 17-beta-hydroxysteroid dehydrogenase type 1 (Homo sapiens, UniProt P14061); experiment: Inhibition of 17 beta-HSD1 in human T47D cells assessed as inhibition of transformation of [14C]E1 to [14C]E2 after overnight incubation; assay type: cell-based
# T1 sequence (P14061 whole entry): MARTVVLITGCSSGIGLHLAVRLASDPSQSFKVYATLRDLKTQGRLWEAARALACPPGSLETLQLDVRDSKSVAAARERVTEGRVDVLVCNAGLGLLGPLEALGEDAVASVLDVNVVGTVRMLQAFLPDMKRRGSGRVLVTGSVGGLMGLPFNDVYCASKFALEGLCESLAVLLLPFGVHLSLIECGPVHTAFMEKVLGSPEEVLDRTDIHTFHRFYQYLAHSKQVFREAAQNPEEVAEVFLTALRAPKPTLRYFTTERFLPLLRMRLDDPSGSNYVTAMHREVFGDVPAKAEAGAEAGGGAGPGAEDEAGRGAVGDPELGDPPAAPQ
# T47D [2] = experiment: Estrogenic activity in human T47D cells assessed as cell proliferation at 0.5 uM incubated for 7 days with replacement of media in every 2 days by CellTitre-Glo assay; assay type: functional
# [3] = target: T2, 17-beta-hydroxysteroid dehydrogenase type 1 (Homo sapiens) (UniProt P14061); experiment: Inhibition of 17 beta-HSD1 in human T47D cells assessed as inhibition of transformation of [14C]E1 to [14C]E2 at 10 uM after overnight incubation; assay type: cell-based
# T2 sequence (whole entry): T1 sequence (P14061 whole entry)
# T47D [4] = experiment: Estrogenic activity in human T47D cells assessed as cell proliferation at 0.1 uM incubated for 7 days with replacement of media in every 2 days by CellTitre-Glo assay; assay type: functional
# [5] = target: T3, 17-beta-hydroxysteroid dehydrogenase type 2 (Homo sapiens) (UniProt P37059); experiment: Inhibition of 17 beta-HSD2 (unknown origin) transfected in HEK293 cells using [14C]E2 as substrate at 1 uM; assay type: cell-based
# T3 sequence (whole entry): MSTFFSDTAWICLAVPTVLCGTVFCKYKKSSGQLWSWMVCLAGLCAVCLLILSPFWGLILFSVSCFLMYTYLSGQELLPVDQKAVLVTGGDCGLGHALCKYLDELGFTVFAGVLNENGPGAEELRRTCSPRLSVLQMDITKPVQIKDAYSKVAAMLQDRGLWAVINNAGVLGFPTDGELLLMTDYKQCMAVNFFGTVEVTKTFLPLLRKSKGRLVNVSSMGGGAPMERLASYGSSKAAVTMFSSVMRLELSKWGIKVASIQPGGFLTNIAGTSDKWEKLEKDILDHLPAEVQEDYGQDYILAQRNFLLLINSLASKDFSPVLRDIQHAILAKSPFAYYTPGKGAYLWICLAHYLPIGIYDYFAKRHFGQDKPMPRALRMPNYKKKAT
# [6] = target: T3, 17-beta-hydroxysteroid dehydrogenase type 2 (Homo sapiens); experiment: Inhibition of 17 beta-HSD2 (unknown origin) transfected in HEK293 cells using [14C]E2 as substrate at 10 uM; assay type: cell-based
# [7] = target: T4, Very-long-chain 3-oxoacyl-CoA reductase (Homo sapiens) (UniProt Q53GQ0); experiment: Inhibition of 17 beta-HSD12 (unknown origin) at 10 uM
# T4 sequence (whole entry): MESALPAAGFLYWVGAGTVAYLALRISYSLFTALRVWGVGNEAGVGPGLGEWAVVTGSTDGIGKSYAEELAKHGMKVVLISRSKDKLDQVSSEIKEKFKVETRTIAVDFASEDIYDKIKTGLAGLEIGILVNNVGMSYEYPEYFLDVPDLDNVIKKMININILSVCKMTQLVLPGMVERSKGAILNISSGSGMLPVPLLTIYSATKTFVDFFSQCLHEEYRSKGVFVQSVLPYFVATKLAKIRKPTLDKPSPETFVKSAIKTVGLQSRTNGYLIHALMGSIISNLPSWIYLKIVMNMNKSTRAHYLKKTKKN
smiles,measurement,setting,value
CCCCCCN1C(=O)O[C@@H]2[C@@]3(C)CC[C@@H]4c5ccc(O)cc5CC[C@H]4[C@@H]3C[C@]2(O)[C@@H]1c1cccc(C(N)=O)c1,IC50,[1],6.6 µM
same,Activity,T47D [2],Active
same,inhibition,[3],Active
CCCCCCCCN1C(=O)O[C@H]2C(=C[C@H]3[C@@H]4CCc5cc(O)ccc5[C@H]4CC[C@]23C)[C@@H]1c1cccc(C(N)=O)c1,inhibition,[3],Active
CCN1C(=O)O[C@@H]2[C@@]3(C)CC[C@@H]4c5ccc(O)cc5CC[C@H]4[C@@H]3C[C@]2(O)[C@@H]1c1cccc(C(N)=O)c1,inhibition,[3],Active
CCCCCCN1C(=O)O[C@H]2C(=C[C@H]3[C@@H]4CCc5cc(O)ccc5[C@H]4CC[C@]23C)[C@@H]1c1cccc(C(N)=O)c1,inhibition,[3],Active
CCCCCCCCN1C(=O)O[C@@H]2[C@@]3(C)CC[C@@H]4c5ccc(O)cc5CC[C@H]4[C@@H]3C[C@]2(O)[C@@H]1c1cccc(C(N)=O)c1,inhibition,[3],Active
CCCCN1C(=O)O[C@@H]2[C@@]3(C)CC[C@@H]4c5ccc(O)cc5CC[C@H]4[C@@H]3C[C@]2(O)[C@@H]1c1cccc(C(N)=O)c1,inhibition,[3],Active
CCN1C(=O)O[C@H]2C(=C[C@H]3[C@@H]4CCc5cc(O)ccc5[C@H]4CC[C@]23C)[C@@H]1c1cccc(C(N)=O)c1,inhibition,[3],Active
C[C@]12CC[C@@H]3c4ccc(O)cc4CC[C@H]3[C@@H]1CC[C@@H]2O [ESTRADIOL],growth at 0.5 µM,T47D [2]; read-out: Activity,380%
same,growth at 0.1 µM,T47D [4]; read-out: Activity,320%
CCCCN1C(=O)O[C@H]2C(=C[C@H]3[C@@H]4CCc5cc(O)ccc5[C@H]4CC[C@]23C)[C@@H]1c1cccc(C(N)=O)c1,IC50,[1],1.4 µM
same,Activity,T47D [2],inactive
same,inhibition,[5],10%
same,inhibition,[6],15%
same,inhibition,[3],Active
same,Activity,T47D [4],inactive
same,inhibition,[7],inactive
